{"source": "patent US20100048604A1", "about": "“Ligands for Aldoketoreductases” (priority 2004, published 2010)", "key": {"panel of oxidoreductases": {"test_system": "panel of oxidoreductases", "experiment": "Enzymatic screening of probes 1-7 against a panel of oxidoreductases (enzymes other than 3α-HSDs)", "format": "biochemical", "settings": "12 hour incubation, 30-50 μM substrate, pH 7, 250 μM NAD(P)H", "method": "FIG. 4. Screening of probes 1-7 against a panel of oxidoreductases Percentage fluorescence increase after 12 hour incubation of 30-50 μM substrate, 100 mM phosphate buffer (pH 7), 250 μM NAD(P)H, and 100 nM enzyme. Substrates 1, 2, 3, and 4 monitored at λexc=340 nm, λem=440 nm. Substrates 5, 6, and 7 monitored at λexc=440 nm, λem=510 nm. 3HSD, 3α-hydroxysteroid dehydrogenase (PT, Pseudomonas testosteroni), HLAD, horse liver alcohol dehydrogenase, TBAD, Thermoanaerobium brockii alcohol dehydrogenase, BS 12HSD, Bacillus sp. 12α-hydroxysteroid dehydrogenase, ABAD, amyloid-β binding alcohol dehydrogenase (human), GDH, glycerol dehydrogenase, YADH, yeast alcohol dehydrogenase, LDH, lactate dehydrogenase.\nProbes 1-7 (see FIG. 3) were subsequently tested against a collection of dehydrogenases in the presence of NAD(P)H; the extent of reduction was assessed by the measurement of fluorescence intensity at the emission maximum of each probe (FIG. 4). […]\nInitial Screening with Fluorogenic Substrates: Screening of the first fluorogenic substrates for enzymatic activity has been described above. […] Formation of the alcohol reduction product was determined by reading the fluorescence arising from excitation at the corresponding alcohol at either 340 nm (27-30) or 440 nm (31-33)."}, "AKR1C1-AKR1C4": {"test_system": "AKR1C1-AKR1C4", "experiment": "Substrate tolerance and selectivity across the four human AKR1C isozymes", "format": "biochemical", "settings": "AKR1C1-AKR1C4, purified enzymes, NADPH", "from_the_text": "AKR1C2 and AKR1C3 Selective Probes: Probes (5a-5i) were examined as substrates for the four purified human HSD isozymes (AKR1C1-AKR1C4) under standard assay conditions [catalytic quantities of enzyme, an excess of cofactor (NADPH)]. The initial reaction rates were used to derive standard kinetic parameters (kcat and Km, Materials and Methods).\nSubstrate tolerance of AKR1Cs: Isozyme Activity with 5a-5i: Activity of the second generation of fluorogenic substrates with the AKR1C isozymes was determined as follows. To a STARNA semi-micro fluorimeter cell (with 4 polished windows) was added 100 μL of 1 M potassium phosphate buffer (pH 6), 840 μL doubly deionized water, and 20 μL of 12.5 mM NADPH. After mixing the aqueous components thoroughly, 20 μL of acetonitrile was added as a cosolvent and mixed well. 20 μL of 2.5 mM second generation fluorogenic ketone in acetonitrile (5a-5i) was then added and mixed. 4 μL of undiluted AKR1C (provided generously by the Penning lab at concentrations of 2.5 mg/mL) were then added to the cuvette for a total of 10 μg purified enzyme in the 1 mL assay volume. Fluorescence arising from the respective alcohol reduction product was then monitored over the course of 5-10 minutes.\nBinding constant and catalytic rates (Km and kcat) of the second generation of fluorogenic substrates was determined as follows. To a STARNA semi-micro fluorometer cell (with 4 polished windows) was added 100 μL of 1 M potassium phosphate buffer (pH 6), 840 μL doubly deionized water, and 20 AL of 12.5 mM NADPH. After mixing the aqueous components thoroughly, 20 μL of acetonitrile was added as a cosolvent and mixed well. […] Fluorescence arising from the respective alcohol reduction product was then monitored over the course of 3 minutes (Excitation and emission band pass slits both at 4 nm, lamp 700 V, λexc 410 nm, λem 510). The rate of product formation, expressed in units of nanomoles per minute, were calculated according to previously published procedures (Wierzchowski, J.; Dafeldecker, W. P.; Holmquist, B.; Vallee, B. L. Anal. Biochem. 1989, 178, 57-62): […]"}}, "data": [{"molecule": "CC(=O)c1cc(=O)oc2c3c4c(cc12)CCCN4CCC3", "note": "[compound 5, 8-Acetyl-2,3,5,6-tetrahydro-1H,4H-11-oxa-3a-aza-benzo[de]anthracen-10-one]", "values": [{"measurement": "reduction of probe by the other enzymes of the panel", "setting": "panel of oxidoreductases", "result": "No other enzymes examined in this assay catalyzed the reduction"}, {"measurement": "acceptance as substrate by the four human isozymes", "setting": "AKR1C1-AKR1C4", "result": "all four human isozymes catalyzed the reduction"}]}]}
